Measurements: BindingDB's records for doi:10.1016/0196-9781(94)90118-x (Tulane University, 1994)
Positions of bridges follow the written chain, without caps; N, C: chain ends. Non-standard residues stand in square brackets, D forms with d. Residues, ends and D or L forms follow the SMILES beside them. ξ: configuration not given here. 2Nal = N[C@@H](Cc1ccc2ccccc2c1)C(=O)O; d2Nal = N[C@H](Cc1ccc2ccccc2c1)C(=O)O; ξPhg = NC(C(=O)O)c1ccccc1; Abu = CC[C@H](N)C(=O)O

Tests used:
[1] = molecular target: Somatostatin receptor type 3 (Rattus norvegicus, UniProt P30936)
Somatostatin receptor type 3, sequence (P30936 whole entry): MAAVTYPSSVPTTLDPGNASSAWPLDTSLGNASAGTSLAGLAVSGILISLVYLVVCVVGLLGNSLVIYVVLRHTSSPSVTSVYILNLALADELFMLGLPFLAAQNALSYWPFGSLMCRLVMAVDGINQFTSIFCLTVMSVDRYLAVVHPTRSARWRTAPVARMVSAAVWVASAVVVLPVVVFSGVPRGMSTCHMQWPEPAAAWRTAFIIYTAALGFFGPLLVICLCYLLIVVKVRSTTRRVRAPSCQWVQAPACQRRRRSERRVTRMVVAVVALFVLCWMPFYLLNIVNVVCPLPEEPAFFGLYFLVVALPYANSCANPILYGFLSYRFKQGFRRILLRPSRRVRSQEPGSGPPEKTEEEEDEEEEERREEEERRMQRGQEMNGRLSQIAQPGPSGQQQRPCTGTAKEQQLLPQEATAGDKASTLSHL

[2] = molecular target: Somatostatin receptor type 1 (Rattus norvegicus, UniProt P28646)
Somatostatin receptor type 1, sequence (P28646 whole entry): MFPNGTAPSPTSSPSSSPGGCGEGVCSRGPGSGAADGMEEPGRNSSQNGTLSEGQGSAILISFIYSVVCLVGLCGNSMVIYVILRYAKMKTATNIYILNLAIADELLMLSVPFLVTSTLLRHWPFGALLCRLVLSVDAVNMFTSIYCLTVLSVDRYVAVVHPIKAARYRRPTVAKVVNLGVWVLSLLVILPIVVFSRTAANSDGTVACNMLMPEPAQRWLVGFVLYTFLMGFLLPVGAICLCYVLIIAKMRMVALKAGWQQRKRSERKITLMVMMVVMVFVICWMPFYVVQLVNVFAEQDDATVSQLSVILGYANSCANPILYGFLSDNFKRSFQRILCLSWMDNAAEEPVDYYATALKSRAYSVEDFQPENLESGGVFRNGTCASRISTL

[3] = molecular target: Somatostatin receptor type 2 (Rattus norvegicus, UniProt P30680)
Somatostatin receptor type 2, sequence (P30680 whole entry): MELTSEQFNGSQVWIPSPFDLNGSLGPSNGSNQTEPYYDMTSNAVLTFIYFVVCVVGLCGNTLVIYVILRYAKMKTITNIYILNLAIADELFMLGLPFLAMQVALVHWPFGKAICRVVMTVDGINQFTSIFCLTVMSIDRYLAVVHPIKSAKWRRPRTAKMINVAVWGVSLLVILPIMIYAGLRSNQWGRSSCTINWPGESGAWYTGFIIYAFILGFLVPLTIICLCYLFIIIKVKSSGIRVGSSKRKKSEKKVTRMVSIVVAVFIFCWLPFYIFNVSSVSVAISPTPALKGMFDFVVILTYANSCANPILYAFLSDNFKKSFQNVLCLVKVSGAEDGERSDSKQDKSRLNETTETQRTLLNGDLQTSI

[4] = molecular target: T1, Somatostatin receptor type 5 (Rattus norvegicus, UniProt P30938)
T1 sequence (P30938 whole entry): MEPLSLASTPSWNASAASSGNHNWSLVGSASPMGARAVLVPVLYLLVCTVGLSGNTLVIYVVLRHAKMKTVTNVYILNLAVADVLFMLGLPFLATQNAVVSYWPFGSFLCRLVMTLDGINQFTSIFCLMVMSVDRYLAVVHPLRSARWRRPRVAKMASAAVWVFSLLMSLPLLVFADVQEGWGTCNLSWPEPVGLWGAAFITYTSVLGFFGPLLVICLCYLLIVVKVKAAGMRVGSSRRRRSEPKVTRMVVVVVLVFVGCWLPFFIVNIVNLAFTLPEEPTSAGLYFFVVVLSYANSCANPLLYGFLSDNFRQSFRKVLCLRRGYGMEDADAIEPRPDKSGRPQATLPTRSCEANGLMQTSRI

[5] = molecular target: Somatostatin receptor type 4 (Rattus norvegicus, UniProt P30937)
Somatostatin receptor type 4, sequence (P30937 whole entry): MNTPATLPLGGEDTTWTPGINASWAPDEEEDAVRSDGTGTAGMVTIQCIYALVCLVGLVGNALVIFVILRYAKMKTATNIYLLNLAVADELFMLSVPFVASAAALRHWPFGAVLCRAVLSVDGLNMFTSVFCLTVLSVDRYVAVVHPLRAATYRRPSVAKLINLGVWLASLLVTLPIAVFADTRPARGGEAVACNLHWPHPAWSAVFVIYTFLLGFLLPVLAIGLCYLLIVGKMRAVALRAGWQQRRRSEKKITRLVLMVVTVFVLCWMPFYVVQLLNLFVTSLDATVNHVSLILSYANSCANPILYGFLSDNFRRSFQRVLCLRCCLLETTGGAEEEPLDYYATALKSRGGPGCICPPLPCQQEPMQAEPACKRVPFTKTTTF

| SMILES | Ki [1] [nM] | Ki [2] [nM] | Ki [3] [nM] | Ki [4] [nM] | Ki [5] [nM] |
| --- | --- | --- | --- | --- | --- |
| CC[C@@H]1NC(=O)[C@H](CCCCN)NC(=O)[C@@H](Cc2c[nH]c3ccccc23)NC(=O)[C@H](Cc2ccc(O)cc2)NC(=O)[C@@H](NC(=O)[C@H](N)Cc2ccccc2)CSSC[C@@H](C(=O)N[C@@H](Cc2ccc3ccccc3c2)C(N)=O)NC1=O [D-Phe-Cys-Tyr-D-Trp-Lys-Abu-Cys-Nal-NH] (H-[dF]CY[dW]K[Abu]C[2Nal]-NH2; disulfide 2-7) | 11 | > 10000 | 0.01 | – | – |
| C[C@@H](O)[C@H](NC(=O)[C@H](Cc1ccccc1)NC(=O)[C@@H](NC(=O)[C@H](CCCCN)NC(=O)[C@@H](Cc1c[nH]c2ccccc12)NC(=O)[C@H](Cc1ccccc1)NC(=O)[C@H](Cc1ccccc1)NC(=O)[C@H](N)Cc1ccccc1)[C@@H](C)O)C(N)=O [CAS_133073-82-2] (H-[dF]FF[dW]KTFT-NH2) | 0.42 | – | 32 | 18 | – |
| CC(C)[C@H](NC(=O)[C@H](CCCCN)NC(=O)[C@@H](Cc1c[nH]c2ccccc12)NC(=O)[C@H](Cc1ccc(O)cc1)NC(=O)[C@H](Cc1ccccc1)NC(=O)[C@H](N)Cc1ccccc1)C(=O)N[C@@H](Cc1ccccc1)C(=O)N[C@H](Cc1ccc2ccccc2c1)C(N)=O [CAS_150155-61-6] (H-[dF]FY[dW]KVF[d2Nal]-NH2) | 0.02 | > 10000 | 1000 | 158 | 43 |
| CC(C)[C@H](NC(=O)[C@H](CCCCN)NC(=O)[C@H](Cc1c[nH]c2ccccc12)NC(=O)[C@H](Cc1ccc(O)cc1)NC(=O)[C@H](Cc1ccccc1)NC(=O)C(N)c1ccccc1)C(=O)N[C@@H](Cc1ccccc1)C(=O)N[C@H](C(N)=O)[C@@H](C)O (stereo partly drawn) [D-Phe-Phe-Tyr-D-Trp-Lys-Val-Phe-Thr-NH2] (H-[ξPhg]FYWKVFT-NH2) | – | – | – | 77 | – |
| CC(C)[C@@H]1NC(=O)[C@H](CCCCN)NC(=O)[C@@H](Cc2c[nH]c3ccccc23)NC(=O)[C@H](Cc2ccc(O)cc2)NC(=O)[C@@H](NC(=O)[C@H](N)Cc2ccc3ccccc3c2)CSSC[C@@H](C(=O)N[C@H](C(N)=O)[C@@H](C)O)NC1=O [D-Nal-Cys-Tyr-D-Trp-Lys-Val-Cys-Thr-NH2] | 4.9 | > 10000 | 1.6 | – | – |
| CC(C)[C@H](NC(=O)[C@H](CCCCN)NC(=O)[C@H](Cc1c[nH]c2ccccc12)NC(=O)[C@H](Cc1ccc(O)cc1)NC(=O)[C@@H](N)CS)C(=O)N[C@@H](CS)C(=O)N[C@H](C(N)=O)[C@@H](C)O [D-Nal-Cys-Tyr-D-Trp-Lys-Val-Cys-Thr-NH2] (H-CYWKVCT-NH2) | – | – | – | 1000 | – |
| CC(C)[C@H](NC(=O)[C@H](CCCCN)NC(=O)[C@@H](Cc1c[nH]c2ccccc12)NC(=O)[C@H](Cc1ccc(O)cc1)NC(=O)[C@H](Cc1ccccc1)NC(=O)[C@H](N)Cc1ccccc1)C(=O)N[C@@H](Cc1ccccc1)C(=O)N[C@H](C(N)=O)[C@@H](C)O [D-Phe-Phe-Tyr-D-Trp-Lys-Val-Phe-Thr-NH2] (H-[dF]FY[dW]KVFT-NH2) | 0.03 | > 10000 | 46 | – | 1.2 |
